Experimental data from publication PMC12396409, “Screening and hit evaluation of a microbial metabolite library against the pathogenic Plasmodium falciparum and Toxoplasma gondii parasites” (International Journal for Parasitology: Drugs and Drug …, 2025).
Counter-ions that a name gives are not always drawn. Like-named read-outs stand apart in the source and are kept apart here. *1 amine or outer side, *2 acyl side, *3 side chain or, on linkers, in order; H or OH if unused. Where a SMILES comes first, the peptide text is derived from it. Bridges are numbered along the chain shown (N, C = ends). [ ]: non-standard residue; d: D form. The star is where a group is joined. Orn(4R-OH,5R-OH) = O=C([C@H](C[C@@H](O)[C@@H](O)N[*:3])N[*:1])[*:2]; Tetradecanoyl(10R,12S-Me2) = CC[C@H](C)C[C@H](C)CCCCCCCCC(=O)*; hTyr(3S-OH,4S-OH) = N[C@H](C(=O)O)[C@H](O)[C@@H](O)c1ccc(O)cc1; Gln(3R-OH) = NC(=O)C[C@@H](O)[C@H](N)C(=O)O; Pro(3S-OH) = O=C(O)[C@H]1NCC[C@@H]1O; Hyp = O=C(O)[C@@H]1C[C@@H](O)CN1

Assays:
[1] = system: P. falciparum 3D7 parasites; experiment: P. falciparum growth inhibition assay, 1-cycle (72 h treatment), SYBR DNA staining (library screen at 2 μg/mL and dose-response); format: cell-based, Plasmodium falciparum; settings: for 1) Growth (%) at 72 h / Mean: 2 μg/mL; for Mean: mean of both replicates, growth (% of control); for activity at 2 µg/mL: Plasmodium falciparum, 3D7; P. falciparum, 2 μg/mL, 72 h; read-out: 1) Growth (%) at 72 h
[2] = system: P. falciparum 3D7 parasites; experiment: P. falciparum growth inhibition assay, 2-cycle (120 h treatment), delayed-death screen and dose-response; format: cell-based, Plasmodium falciparum; settings: for 2) Growth (%) at 120 h / 3) Fold change (72 h/120 h): 2 μg/mL; for 3) Fold change (72 h/120 h): growth at 72 h / growth at 120 h; for activity at 2 µg/mL: Plasmodium falciparum, 3D7; P. falciparum, 2 μg/mL, 120 h; read-out: 2) Growth (%) at 120 h
[3] = system: T. gondii RH strain (RH-Tub-eYFP) tachyzoites; experiment: microbe, parasite or virus in culture; format: cell-based, Toxoplasma gondii; settings: for Mean / Replicate 1 / Replicate 2: 2 μg/mL; for Mean: mean of both replicates, growth (% of control); for Replicate 1 / Replicate 2: values are growth (% of control); for percent parasite growth at 2 µg/mL: Toxoplasma gondii
[4] = active against the parasite at 2 μg/mL, no anti-tumour (NS-1) or cytotoxic (fibroblast) activity at 5 μg/mL

Molecule	1) Growth (%) at 72 h ([1]; P. falciparum, 72 h)	2) Growth (%) at 120 h ([2]; P. falciparum, 120 h)	3) Fold change (72 h/120 h) ([2]; P. falciparum)	other results
CC[C@H](C)C[C@H](C)CCCCCCCCC(=O)N[C@H]1C[C@@H](O)[C@@H](O)NC(=O)[C@@H]2[C@@H](O)CCN2C(=O)[C@H]([C@H](O)CC(N)=O)NC(=O)[C@H]([C@H](O)[C@@H](O)c2ccc(O)cc2)NC(=O)[C@@H]2C[C@@H](O)CN2C(=O)[C@H]([C@@H](C)O)NC1=O [Pneumocandin B0] ({Tetradecanoyl(10R,12S-Me2)}-[Orn(4R-OH,5R-OH)]T[Hyp][hTyr(3S-OH,4S-OH)][Gln(3R-OH)][Pro(3S-OH)]; lactam 1-C)	–	–	–	Pf_72h_%Growth_Rep1 ([1]; P. falciparum, 72 h, parasite screen 2 μg/mL, % growth, replicate 1): 84.80%; Pf_72h_%Growth_Rep2 ([1]; P. falciparum, 72 h, parasite screen 2 μg/mL, % growth, replicate 2): 90.52%; Pf_120h_%Growth_Rep1 ([2]; P. falciparum, 120 h, parasite screen 2 μg/mL, % growth, replicate 1): 81.62%; Pf_120h_%Growth_Rep2 ([2]; P. falciparum, 120 h, parasite screen 2 μg/mL, % growth, replicate 2): 136.49%; Tg_72h_%Growth_Rep1 ([3]; T. gondii, 72 h, parasite screen 2 μg/mL, % growth, replicate 1): 104.00%; Tg_72h_%Growth_Rep2 ([3]; T. gondii, 72 h, parasite screen 2 μg/mL, % growth, replicate 2): 85.61%
CC1=C[C@H]2C(=O)O[C@H]3C[C@@H](C/C=C(\C)C[C@@H](C)/C=C/C=C4\CO[C@H]([C@@H]1O)[C@@]42O)O[C@]1(C3)C[C@H](O)[C@H](C)[C@@H](/C(C)=C/C(C)C)O1 [Nemadectin]	21.98%	11.78%	1.9	Mean ([1]; P. falciparum, 72 h): 21.98
CCC[C@@H]1C[C@@H](C(=O)N[C@@H]([C@H]2O[C@H](SC)[C@H](O)[C@@H](O)[C@H]2O)[C@@H](C)O)N(C)C1 [Lincomycin, reference compound]	–	–	3.8	activity at 2 µg/mL [1]: 54.4%; activity at 2 µg/mL [2]: 14.1%
CN=C1NC(=O)[C@H]([C@H](C)c2c[nH]c3ccccc23)O1 [Indolmycin]	44.88%	17.39%	2.6	–
CC(=O)O[C@H]1C[C@@]2(C)[C@@H](CC[C@H]3[C@@]4(C)C=CC(=O)[C@@H](C)[C@@H]4[C@H](OC(C)=O)C(=O)[C@@]32C)/C1=C(\CCC=C(C)C)C(=O)O [Helvolic acid]	–	–	7.0	activity at 2 µg/mL [1]: 56.7%; activity at 2 µg/mL [2]: 8.14%
CCCC(=O)O[C@H]1[C@H](C)O[C@@H](O[C@H]2[C@H](N(C)C)[C@@H](O)[C@H](O[C@H]3[C@@H](CC=O)C[C@@H](C)[C@@H](O)/C=C/C=C/C[C@@H](C)OC(=O)C[C@@H](O)[C@@H]3OC)O[C@@H]2C)C[C@@]1(C)O [Leucomycin A5]	66.05%	12.18%	5.4	–
Oc1cc(O)cc(O)c1 [Phloroglucinol]	–	–	3.9	activity at 2 µg/mL [1]: 51.2%; activity at 2 µg/mL [2]: 13.2%
4-O-methylammocidin	43.16%	13.10%	3.3	–
CO[C@@H]1[C@@H](O[C@@H]2O[C@H](C)[C@@H](O[C@H]3C[C@@](C)(O)[C@@H](OC(=O)CC(C)C)[C@H](C)O3)[C@H](N(C)C)[C@H]2O)[C@@H](CC=O)C[C@@H](C)[C@@H](O)/C=C/C=C/C[C@@H](C)OC(=O)C[C@H]1O [Leucomycin A1]	58.63%	11.56%	5.1	–
Methylcanidine	21.12%	11.61%	1.8	Mean ([1]; P. falciparum, 72 h): 21.12
CN[C@@H]1C[C@H]2O[C@@](C)([C@@H]1OC)n1c3ccccc3c3c4c(c5c6ccccc6n2c5c31)C(=O)NC4=O [Oxostaurosporine, 7-]	–	–	–	Mean ([3]; T. gondii, 72 h): 37.90; Replicate 1 ([3]; T. gondii, 72 h): 57.26; Replicate 2 ([3]; T. gondii, 72 h): 18.54
CCCCCC(=O)O[C@H]1[C@H](C)O[C@@H](O[C@H]2[C@H](N(C)C)[C@@H](O)[C@H](O[C@H]3[C@@H](CC=O)C[C@@H](C)[C@@H](O)/C=C/C=C/C[C@@H](C)OC(=O)C[C@@H](O)[C@@H]3OC)O[C@@H]2C)C[C@@]1(C)O [Leucomycin A13]	33.20%	9.02%	3.7	–
O=C(O)c1cccc(C(=O)O)n1 [Dipicolinic acid]	–	–	–	percent parasite growth at 2 µg/mL ([3]; 72 h, library screen at 2 μg/mL, 72 h, % growth, replicate 1, read-out: Tg_72h_%Growth_Rep1): 112%; percent parasite growth at 2 µg/mL ([3]; 72 h, library screen at 2 μg/mL, 72 h, % growth, replicate 2, read-out: Tg_72h_%Growth_Rep2): 89.5%
Milbemycin oxime [reference compound]	23.75%	3.08%	7.7	–
C=C[C@]1(C)C[C@@H](O)[C@]2(C)[C@H](C)CC[C@]3(CCC(=O)[C@H]32)[C@@H](C)[C@@H]1O [Mutilin]	–	–	–	Screen (P. falciparum) ([1]; library screen at 2 μg/mL, 3D7, 72 h, DD from the 120 h timepoint): I, I; Screen (T. gondii) ([3]; library screen at 2 μg/mL, RH strain, 72 h): I, I
CC(C)=CCC[C@H](C)[C@H]1CC[C@]2(C)C[C@H]3[C@H](C(=O)C[C@@]3(C)O)/C(C=O)=C\C[C@@H]12 [Ophiobolin C]	–	–	–	Mean ([3]; T. gondii, 72 h): 48.72; Replicate 1 ([3]; T. gondii, 72 h): 7.63; Replicate 2 ([3]; T. gondii, 72 h): 89.80
CC[C@H]1/C=C/C=C/C[C@@H](C)[C@H](O)[C@@](C)(O)C(=O)[C@@H](C)[C@H](O)[C@@H](C)C(=O)[C@@H](C)[C@H](O)[C@@H](C)/C=C/C(=O)O[C@H]2C[C@@]3(CC[C@H](C)[C@H](C[C@@H](C)O)O3)O[C@@H](CC1)[C@H]2C [Oligomycin D]	21.67%	14.87%	1.5	Mean ([1]; P. falciparum, 72 h): 21.67
CN(C)c1ccc(O)c2c1C[C@H]1C[C@H]3[C@H](N(C)C)C(O)=C(C(N)=O)C(=O)[C@@]3(O)C(O)=C1C2=O [Minocycline HCl, reference compound]	–	–	–	Mean ([3]; T. gondii, 72 h): 21.66; Replicate 1 ([3]; T. gondii, 72 h): 5.81; Replicate 2 ([3]; T. gondii, 72 h): 37.51
Cc1cc(=O)n2c3c(c4c(cc13)c(CO)cc(=O)n4C)OC2 [Nybomycin]	31.94%	16.54%	1.9	Mean ([1]; P. falciparum, 72 h): 31.94
COC(=O)C1=CO[C@@H](C)[C@@H]2CN3CCc4c([nH]c5cc(OC)c(OC)cc45)[C@@H]3C[C@H]12 [Isoreserpiline]	24.60%	4.30%	5.7	–
CCC[C@@H]1C[C@@H](C(=O)N[C@@H]([C@H]2O[C@H](SC)[C@H](O)[C@@H](O)[C@H]2O)[C@H](C)Cl)N(C)C1 [Clindamycin hydrochloride, reference compound]	–	–	–	percent parasite growth at 2 µg/mL ([3]; 72 h, read-out: Tg_72h_%Growth_Rep1): 21.7%; percent parasite growth at 2 µg/mL ([3]; 72 h, read-out: Tg_72h_%Growth_Rep2): 28.6%
CC1=C[C@H]2C(=O)O[C@H]3C[C@@H](C/C=C(\C)C[C@@H](C)/C=C/C=C4\CO[C@H]([C@@H]1O)[C@@]42O)O[C@@]1(CC[C@H](C)[C@@H](C)O1)C3 [Milbemycin A3]	24.47%	17.63%	1.4	Mean ([1]; P. falciparum, 72 h): 24.47
CC[C@H]1O[C@]2(CC[C@@H]1C)C[C@@H]1C[C@@H](C/C=C(\C)C[C@@H](C)/C=C/C=C3\CO[C@@H]4C(=NO)C(C)=C[C@@H](C(=O)O1)[C@]34O)O2 [Milbemycin A4 oxime]	22.48%	12.31%	1.8	Mean ([1]; P. falciparum, 72 h): 22.48
COC(=O)c1ccc(CCCCCCCCCCc2ccc(C(=O)OC)nc2)cn1 [Penicolinate A]	–	–	–	Mean ([3]; T. gondii, 72 h): 44.53; Replicate 1 ([3]; T. gondii, 72 h): 16.04; Replicate 2 ([3]; T. gondii, 72 h): 73.01
CN1CC[C@]2(c3cccc4c3N[C@H]3N(C)CC[C@@]43[C@]34CCN(C)[C@H]3Nc3ccccc34)c3ccccc3N[C@H]12 [Hodgkinsine B]	–	–	–	Mean ([3]; T. gondii, 72 h): 34.28; Replicate 1 ([3]; T. gondii, 72 h): 8.86; Replicate 2 ([3]; T. gondii, 72 h): 59.70
CC(=O)O[C@@H]1[C@@H]2O[C@H]2[C@@](C)(O)C(=O)[C@@H](C)C/C=C/[C@H]2[C@H](O)C(C)=C(C)[C@H]3[C@H](Cc4ccccc4)NC(=O)[C@@]123 [19,20-epoxycytochalasin C]	–	–	–	selectivity for P. falciparum in the screens [1, 4]: active selectively against P. falciparum and T. gondii; selectivity for T. gondii in the screens [3, 4]: active selectively against P. falciparum and T. gondii
